Test results as given in patent US20180311237A1, “COMPOSITIONS AND METHODS FOR PREVENTING AND TREATING MUCOSITIS AND WEIGHT LOSS” (ST IP Holding AG, priority 2007, published 2018).
Values joined by “and” are separate entries in the source; they are usually repeats but may differ in a detail not shown here. Identical values can stand only once. Like-named read-outs stand apart in the source and are kept apart here. Marks after values point to notes of the source that are not given here.

Assays:
[1] = tested on: mice exposed to 10 Gy gamma radiation; details: for day of first death post-irradiation: 1 h before 10 Gy; for increase in survival compared with the CMC and irradiation group / reduction in animal survival compared with the 100 mg/kg group: thirty-day survival
Protocol: Animals of this group received 0.5% carboxymethyl cellulose (CMC) orally before exposure to 10 Gy gamma irradiation.
A batch of ten animals was irradiated each time at a dose rate of 1.33 Gy/min.
After irradiation, the animals were monitored daily for 30 days for the development of symptoms of radiation sickness and mortality.
Animals of this group received 0.5% carboxymethyl cellulose (CMC) orally before exposure to 10 Gy of gamma irradiation.
Animals of this group were treated with 1, 5, 10, 25, 50, 100, 150, 200 or 250 mg/kg body weight of DAPR orally once before exposure to 10 Gy of gamma radiation.
One hour after the administration of CMC or DAPR, the immobilized animals, achieved by inserting cotton plugs in the restrainer, were whole-body exposed to ^60Co gamma radiation (Theratron, Atomic Energy Agency, Canada) in a specially designed well-ventilated acrylic box. A batch of ten animals was irradiated each time at a dose rate of 1.33 Gy/min.
Initially 1, 5 and 10 mg/kg DAPR were also evaluated. […] The radioprotective efficacy of DAPR was evaluated by treating mice with 0, 25, 50, 100, 150, 200 and 250 mg/kg body weight DAPR before whole-body exposure to 10 Gy gamma radiation.

bone marrow cells [2] = tested on: bone marrow cells
bone marrow cells [3] = tested on: bone marrow cells; remark: listed apart in the source
Protocol: Cytogenetic damage in the bone marrow cells was studied by chromosomal aberration analysis at the end of the experiments. All animals were injected intra-peritoneally (i.p.) with 0.025% colchicine and sacrificed 2 hours later by cervical dislocation. Both femurs were dissected out. Metaphase plates were prepared by the air drying method. Bone marrow from the femur was aspirated, washed in saline, treated hypotonically (0.6% sodium citrate), fixed in 3:1 methanol:acetic acid, dried and stained with 4% Giemsa (Sigma, USA). Chromosomal aberrations were scored under a light microscope. A total of 400 metaphase plates were scored per animal. Different types of aberration-like chromatid breaks, chromosome breaks, fragments, rings, exchanges and dicentrics were scored. When breaks involved both chromatids, it was termed a “chromosome type” aberration, while “chromatid type” aberrations involved only one chromatid. If the deleted portion had no apparent relation to a specific chromosome, it was called a fragment.

spleen = details: day 10 post-irradiation
Protocol: The weight of the spleen at each autopsy interval (day 1, 3, 7, 10, 14 and 30 post-irradiation) was determined to study changes.

[4] = format: in vivo
Protocol: Ninety-six (96) female nude mice ([…]) were randomly assigned into 8 treatment groups. Each mouse was inoculated with 1×10^6 NCI-H146 (H146) small cell lung cancer cells in a volume of 0.05 mL on their lower left flank with Matrigel. Treatment began once tumors reached a volume of 75-125 mm^3.
Initiation of drug treatment was designated day 1. Mice in groups 1 and 5 received vehicle by oral gavage once daily on days 1 and 3. […] Mice in groups 5 to 8 received radiation. The radiation was given as 2 doses of 2 Gy/dose on days 2 and 4. This was accomplished by anesthetizing the mice in these groups with ketamine (100 mg/kg) and xylazine (5 mg/kg) and placing them under a lead shield such that the region of the flank with tumor exposed to the radiation. Radiation was delivered using a Philips 160 kV source at a focal distance of approximately 40 cm, and a dose rate of approximately 1.0 Gy/min. Tumours were measured on alternating days throughout the duration of the study. All mice were sacrificed on day 21 and remaining tumours were excised, measured, weighed, photographed and fixed in formalin for later analysis.
All animals were weighed every day and their survival recorded, in order to assess possible differences in animal weight among treatment groups as an indication of possible toxicity resulting from the treatments.

[5] = tested on: mice exposed to 6, 8 and 10 Gy gamma radiation
Description: Male Swiss albino mice (Mus musculus), 6-8 weeks old with 25±3 g body weight from an inbred colony (obtained from Hamadard University, Delhi, India) were used for the present study. Animals were maintained under controlled conditions of temperature and light in an animal house and were provided with standard mice feed (procured from Hindustan Lever's Ltd. Delhi, India) and water ad libitum.
Cobalt teletherapy unit (ATC-C9) at the Cancer treatment centre, Radiotherapy Department, SMS Medical College & Hospital, Jaipur, India, was used for irradiation.
Thirty minutes after the last administration, the animals were exposed to 8 Gy gamma radiation. Survival of the animals was recorded for 30 days after irradiation. The reduced glutathione (GSH) and lipid peroxidation (LPO) levels in liver and blood were estimated after 30 minutes of radiation exposure.
The protective capacity of an agent (chemical or plant extract) is expressed as dose reduction factor (DRF). It can be calculated by dividing the LD50/30 of experimental animals by LD^50/30 of control animals.
Mice of both groups (control as well as experimental) exposed to 6, 8 and 10 Gy gamma radiation were checked daily for 30 days and the percentage of mice surviving 30 days of exposure against each radiation dose was used to construct survival-dose response curves.
The results obtained are expressed as mean±SE. Student's “t” test was used to make a statistical comparison between the groups. Significance levels were set at P<0.05, P<0.01 and P<0.001. Regression analysis was done to obtain LD50/30 values and to determine the dose reduction factor (DRF).

[6] = oral administration with cysteine (Hassan M. Ali et al., 1984); cited from earlier work

Structure (SMILES): Cc1c(-c2cnccn2)ssc1=S
- day of first death post-irradiation ([1]; 5 mg/kg orally once): 7 days
- increase in survival compared with the CMC and irradiation group ([1]; 10 mg/kg, 10 Gy): 20%
- increase in survival compared with the CMC and irradiation group ([1]; 25 mg/kg, 10 Gy): 30%
- increase in survival compared with the CMC and irradiation group ([1]; 50 mg/kg, 10 Gy): 40%
- thirty-day survival ([1]; 100 mg/kg orally before 10 Gy): 60%
- day of first death post-irradiation ([1]; 100 mg/kg orally once): 11 days
- increase in survival compared with the non-treated irradiated control ([1]; 100 mg/kg, 10 Gy): 60%
- reduction in animal survival compared with the 100 mg/kg group ([1]; 150 mg, 10 Gy): 20%
- mortality within 10 days of irradiation ([1]; 150 mg/kg orally before 10 Gy): did not cause any mortality
- reduction in animal survival compared with the 100 mg/kg group ([1]; 200 mg, 10 Gy): 20%
- mortality within 10 days of irradiation ([1]; 200 mg/kg orally before 10 Gy): did not cause any mortality
- reduction in animal survival compared with the 100 mg/kg group ([1]; 250 mg/kg, 10 Gy): 30%
- optimum protective dose ([1]; oral, before 10 Gy): 100 mg/kg
- Number of Mn/1000 Cells (bone marrow cells [2]; drug + 8.0 Gy gamma rays): 6.58 ± 0.64^c
- Number of Mn/1000 Cells (bone marrow cells [2]; drug alone): 0.28 ± 0.01
- Chromatid breaks (bone marrow cells [3]; drug (100 mg/kg body weight/day) + 8 Gy): 3.18 ± 0.44^a %
- Aberrant cells (bone marrow cells [3]; drug + 8 Gy): 17.20 ± 1.20^c %
- Aberrations per damaged cell (bone marrow cells [3]; drug + 8 Gy): 2.21 ± 0.20^a
- Centric rings (bone marrow cells [3]; drug + 8 Gy): 1.26 ± 0.28%
- Chromosome breaks (bone marrow cells [3]; drug + 8 Gy): 1.04 ± 0.26^b %
- Dicentrics (bone marrow cells [3]; drug + 8 Gy): 1.10 ± 0.14%
- Exchanges (bone marrow cells [3]; drug + 8 Gy): 1.18 ± 0.32^b %
- Fragments (bone marrow cells [3]; drug + 8 Gy): 28.8 ± 3.20^c %
- Polyploidy (bone marrow cells [3]; drug + 8 Gy): 0.36 ± 0.01^c %
- Pulverized cells (bone marrow cells [3]; drug + 8 Gy): 1.28 ± 0.02^c %
- Total aberrations (bone marrow cells [3]; drug + 8 Gy): 38.10 ± 3.66^c %
- Aberrant cells (bone marrow cells [3]; drug alone): 0.61 ± 0.04%
- Aberrations per damaged cell (bone marrow cells [3]; drug alone): 1.21 ± 0.03^c
- Centric rings (bone marrow cells [3]; drug alone): 0.00 ± 0.00%
- Chromatid breaks (bone marrow cells [3]; drug alone): 0.14 ± 0.01%
- Chromosome breaks (bone marrow cells [3]; drug alone): 0.00 ± 0.00%
- Dicentrics (bone marrow cells [3]; drug alone): 0.00 ± 0.00%
- Exchanges (bone marrow cells [3]; drug alone): 0.00 ± 0.00%
- Fragments (bone marrow cells [3]; drug alone): 0.85 ± 0.04^b %
- Polyploidy (bone marrow cells [3]; drug alone): 0.18 ± 0.02%
- Pulverized cells (bone marrow cells [3]; drug alone): 0.00 ± 0.00%
- Total aberrations (bone marrow cells [3]; drug alone): 0.74 ± 0.02%
- Spleen Weight (spleen; drug + 6 Gy): 42.44 ± 1.24^b mg
- Spleen Weight (spleen; drug + 8 Gy): 32.62 ± 1.02^b mg
- Spleen Weight (spleen; drug + 10 Gy): 34.38 ± 1.20^c mg
- average loss of starting weight by Day 21 ([4]; 50 mg/kg po on days 1 and 3, no radiation): 0.1%
- average gain of starting weight by Day 21 ([4]; 50 mg/kg po on days 1 to 20, no radiation): 0.8%
- average gain of starting weight by Day 21 ([4]; 100 mg/kg po on days 1 and 3, no radiation): 4.8%
- toxicity based on observations of survival and weight change ([4]; 50 or 100 mg/kg po, with or without radiation, 21 days): no evidence of toxicity
- average gain of starting weight by Day 21 ([4]; radiation (2 Gy days 2 and 4) plus 50 mg/kg on days 1 and 3): 0.8%
- average gain of starting weight by Day 21 ([4]; radiation plus 50 mg/kg on days 1 to 20): 1.4%
- average gain of starting weight by Day 21 ([4]; radiation plus 100 mg/kg on days 1 and 3): 5.1%
- radiation sickness ([5]; 100 mg/kg body weight/day before 6 Gy): No radiation sickness was observed
- 30-Day Survival Percentage ([5]; 100 mg/kg body weight/day orally, 2 days, before 6 Gy): 100%
- 30-Day Survival Percentage ([5]; 100 mg/kg body weight/day orally, 2 days, before 8 Gy): 61%
- 30-Day Survival Percentage ([5]; 100 mg/kg body weight/day orally, 2 days, before 10 Gy): 20%
- LD50/30 of experimental animals ([5]; 100 mg/kg body weight/day orally, 2 days, before radiation, regression analysis of survival data): 8.82 Gy and 8.51 Gy
- DRF (dose reduction factor) ([5]; LD50/30 of experimental animals divided by LD50/30 of control animals): 1.34
- optimum dose exhibiting maximum radioprotection ([5]; for 2 consecutive days before irradiation (8 Gy)): 100 mg/kg body weight/day
- extent and rate of bioavailability [6]: marked increase
